Data: publication PMC9131275, “Drug-induced self-assembled nanovesicles for doxorubicin resistance reversal via autophagy inhibition and delivery synchronism” (Theranostics, 2022)
Where a name gives a salt, the structure may show the parent alone. Read-outs that look alike come from different tables or passages of the source.

Key:
K562/ADR cells [1] = assay: Annexin V-FITC/PI apoptosis assay; assay type: cell-based, human; settings: 5 μg/mL DOX·HCl and/or 10 µg/mL CQ, 48 h
MCF-7/ADR cells [2] = assay: Annexin V-FITC/PI apoptosis assay; assay type: cell-based, human; settings: 5 μg/mL DOX·HCl and/or 10 µg/mL CQ, 48 h
[3] = ref [20], [21]; cited from earlier work
K562 cells = assay: Cytotoxicity by CCK-8 kit, 48 h; assay type: cell-based; settings: Homo sapiens
Description: (§1) The cytotoxicity of free DOX·HCl, free CQ, physical mixture of free DOX·HCl and CQ (DC), physical mixture of PPAP and cholesteryl hemisuccinate (PPAP/C) and drug-loaded nanovesicles on MCF-7 cells, MCF-7/ADR cells, K562 cells or K562/ADR cells was investigated at 48 h via CCK-8 kit. Accordingly, the reversal index (RI) of DOX·HCl for MCF-7/ADR cells and K562/ADR cells was calculated using the following formula: RI = […]. The combination index (CI) between DOX⋅HCl and CQ at different ratios was calculated as follows: CI = D1/(Dm)1 + D2/(Dm)2 + D1*D2/(Dm)1*(Dm)2, where D1 and (Dm)1 represent the IC50 values of DOX⋅HCl applied in combination or alone, respectively, and D2 and (Dm)2 represent the IC50 values of CQ applied in combination or alone, respectively. In addition, apoptosis analysis was implemented using the Annexin V-FITC/PI kit (LianKe, China) based on the kit instructions. The details were provided by Supplementary Material (Supplementary section 1). […]
(§2) Cytotoxicity and annexin V-FITC/PI apoptosis assay
(§3) To investigate the cytotoxicity of free DOX·HCl, free CQ, physical mixture of free DOX·HCl and CQ, PPAP/C and drug-loaded nanovesicles, various cell lines (MCF-7, […]
(§4) cells/well, respectively, and cultured in RPMI 1640 containing 10 % fetal bovine serum […]
(§5) at 37 °C with 5 % CO2. After 24 h, cells were exposed to increasing concentrations of different formulations for 48 h. Then, 10 µL of CCK-8 reagent was added to each well and the plates were incubated for 2 h. And the absorbency was determined by a microplate reader (Thermo, USA) at 450 nm. […]
(§6) Afterwards, rhodamine 123 (2 µg/mL) was incubated with these cells for 30 […]
(§7) minutes at 37°C . […]
(§8) 104 cells was collected for each sample at the appropriate period.

MCF-7 cells = assay: Cytotoxicity by CCK-8 kit, 48 h; assay type: cell-based; settings: Homo sapiens
Description: as §1, §2, §3, §4, §5, §6, §7, §8

P-gp = molecular target: T1, P-gp (Homo sapiens, UniProt P08183); assay: P-gp functional activity (rhodamine 123 accumulation, flow cytometry); assay type: cell-based; settings: MCF-7/ADR and K562/ADR cells, increasing CQ concentrations
T1 construct: the extremely high expression of P-gp existed in MCF-7/ADR cells and K562/ADR cells; host or cells: MCF-7/ADR and K562/ADR cells
Description: as §5, with “nm. Data are reported as means of triplicate” for “nm.”
The apoptosis analysis was further investigated. Briefly, MCF-7/ADR or K562/MDR cells (2 × 10^5 cells/well) were seeded in 12-well plates and incubated overnight in RPMI 1640 containing 10 % fetal bovine serum. Afterwards, the cells were incubated with various formulations for 48 h at the final DOX·HCl and CQ concentration of 5 and 10 µg/mL, respectively. The cells were treated according to the kit instructions and analyzed by flow cytometry.
P-gp functional activity evaluation
Flow cytometry analysis was used to investigate the effect of CQ on the functional activity of P-gp through monitoring the intracellular uptake of rhodamine 123, namely, a kind of P-gp substrate. Specifically, MCF-7/ADR cells and K562/ADR cells (2 × 10^5 cells/well) were seeded in 12-well plates, respectively. […] Then the cell suspension was analyzed by flow cytometry with the 488 nm argon ion laser. Also, the individual fluorescence of 104 cells was collected for each sample at the appropriate period.

K562/ADR cells [4] = assay: Cytotoxicity by CCK-8 kit, 48 h; assay type: cell-based, human
Description: (§10) Accordingly, the reversal index (RI) of DOX·HCl for MCF-7/ADR cells and K562/ADR cells was calculated using the following formula: RI = IC50 of the test formulation / IC50 of free DOX·HCl.
(§11) at 37 °C with 5 % CO2. After 24 h, cells were exposed to increasing concentrations of different formulations for 48 h. Then, 10 µL of CCK-8 reagent was added to each well and the plates were incubated for 2 h. And the absorbency was determined by a microplate reader (Thermo, USA) at 450 nm. Data are reported as means of triplicate

[5] = mouse, in vivo
Description: (§9) The BALB/c nude mice were subcutaneously inoculated with K562/ADR cells (2×10^7 cells) on the right flank to construct K562/ADR tumor-bearing mice models. After 10 days, mice were randomly divided into seven groups (n = 5) once the tumors reached about 80 mm^3. And then various formulations were injected intravenously through the tail vein every other day for four times and saline was taken as the control group. […] Later, the mice were sacrificed and the tumors were excised and weighted. In addition, tumors and major organs (heart, liver, spleen, lung, and kidney) were collected for slice analysis by hematoxylin and eosin (H&E) staining. The tumors were also analyzed by immunohistochemical detection of Ki67, immunofluorescence assay of LC3 and terminal deoxynucleotidyl transferased dUTP nick end labeling (TUNEL) assay.

K562/ADR tumors = assay: In vivo anti-tumor activity; set-up: species or system BALB/c nude mice; settings: K562/ADR tumor-bearing nude mice, i.v. at 0, 2, 4 and 6 days, Day 16
Description: as §9

MCF-7/ADR cells [6] = assay: Cytotoxicity by CCK-8 kit, 48 h; assay type: cell-based, human
Description: as §10, §11

T1 sequence (P08183 whole entry): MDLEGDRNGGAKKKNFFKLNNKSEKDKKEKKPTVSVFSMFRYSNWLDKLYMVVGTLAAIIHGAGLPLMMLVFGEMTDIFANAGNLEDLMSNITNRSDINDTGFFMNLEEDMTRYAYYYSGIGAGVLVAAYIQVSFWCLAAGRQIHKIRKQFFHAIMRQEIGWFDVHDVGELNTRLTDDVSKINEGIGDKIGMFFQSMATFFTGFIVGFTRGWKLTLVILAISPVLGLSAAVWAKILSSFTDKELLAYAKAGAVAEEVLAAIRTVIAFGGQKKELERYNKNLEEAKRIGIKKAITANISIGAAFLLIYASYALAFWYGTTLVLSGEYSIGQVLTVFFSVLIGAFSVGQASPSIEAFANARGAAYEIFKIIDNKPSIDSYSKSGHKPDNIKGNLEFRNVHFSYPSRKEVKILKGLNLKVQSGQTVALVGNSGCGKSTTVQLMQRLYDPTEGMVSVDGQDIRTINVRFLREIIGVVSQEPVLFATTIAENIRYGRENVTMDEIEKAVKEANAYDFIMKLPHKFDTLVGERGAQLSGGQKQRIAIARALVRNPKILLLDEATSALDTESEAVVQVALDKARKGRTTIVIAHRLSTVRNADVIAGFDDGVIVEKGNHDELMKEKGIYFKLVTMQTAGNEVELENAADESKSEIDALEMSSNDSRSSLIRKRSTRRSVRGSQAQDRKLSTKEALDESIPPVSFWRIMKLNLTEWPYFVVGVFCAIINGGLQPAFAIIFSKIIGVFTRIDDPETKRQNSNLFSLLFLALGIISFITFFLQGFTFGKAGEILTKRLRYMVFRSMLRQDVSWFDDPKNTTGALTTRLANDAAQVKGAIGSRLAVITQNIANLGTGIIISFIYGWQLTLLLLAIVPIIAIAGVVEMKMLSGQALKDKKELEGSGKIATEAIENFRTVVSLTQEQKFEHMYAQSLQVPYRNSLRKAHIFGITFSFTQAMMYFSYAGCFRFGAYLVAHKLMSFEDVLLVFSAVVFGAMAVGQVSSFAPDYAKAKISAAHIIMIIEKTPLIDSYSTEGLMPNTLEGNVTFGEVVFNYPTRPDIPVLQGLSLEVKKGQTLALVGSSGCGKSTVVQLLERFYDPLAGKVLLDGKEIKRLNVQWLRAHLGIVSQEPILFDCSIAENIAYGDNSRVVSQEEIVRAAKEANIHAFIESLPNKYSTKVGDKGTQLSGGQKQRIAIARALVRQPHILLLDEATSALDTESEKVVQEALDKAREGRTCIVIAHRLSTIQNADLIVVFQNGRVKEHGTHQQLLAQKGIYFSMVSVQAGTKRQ

In the case of CCN(CC)CCCC(C)Nc1ccnc2cc(Cl)ccc12 (centres unmarked) [CQ, Chloroquine], the Apoptosis rate (K562/ADR cells [1]) is listed as 40.17%, the Apoptosis rate (MCF-7/ADR cells [2]) is listed as 33.64% and the “plasma protein binding rate” value [3] is listed as 60%. For the same compound, the IC50 (K562 cells; K562, 48 h) was 17.4 ± 1.34 µg/mL, the IC50 (MCF-7 cells; MCF7, 48 h) was 23.9 ± 0.42 µg/mL and the “effect on efflux activity of P-gp (rhodamine 123 accumulation)” value (P-gp) was “can inhibit the efflux activity of P-gp”.
With COc1cccc2c1C(=O)c1c(O)c3c(c(O)c1C2=O)C[C@@](O)(C(=O)CO)C[C@@H]3O[C@H]1C[C@H](N)[C@H](O)[C@H](C)O1 [DOX·HCl, Doxorubicin hydrochloride] the Apoptosis rate (K562/ADR cells [1]) was 42.56%, the IC50 (K562/ADR cells [4]; Homo sapiens, K562/ADR cells, 48 h, read-out: IC50 of DOX·HCl) was 18.9 µg/mL and the “DOX·HCl-resistance index” value (K562/ADR cells [4]; K562/ADR cells vs sensitive cells) was 126 fold. The Apoptosis rate (MCF-7/ADR cells [2]) was 40.83%, the “body weight change during treatment” value [5] was “sharp decrease in body weight” and the “histopathological abnormalities of hearts (H&E)” value [5] was “severe histopathological abnormalities and lesions in the cardiac muscles”. The “tumor inhibition rate (TIR)” value (K562/ADR tumors) was 28.80%, the IC50 (K562 cells; K562 cells, within 48 h, read-out: IC50) was 0.15 ± 0.06 µg/mL and the IC50 (MCF-7 cells; MCF7, MCF-7 cells, within 48 h, read-out: IC50) was 0.08 ± 0.01 µg/mL. For the same compound, the IC50 (MCF-7/ADR cells [6]; Homo sapiens, NCI/ADR-RES, MCF-7/ADR cells, 48 h, read-out: IC50 of DOX·HCl) was 72.1 µg/mL and the “DOX·HCl-resistance index” value (MCF-7/ADR cells [6]; MCF-7/ADR cells vs sensitive cells) was 902 fold.
